In one test the test system is cultured podocytes. The test can be described thus: Real time qRT-PCR for MMP transcripts in cultured podocytes, static and stretched. It is filed as cell-based, mouse. The note with it: relative to untreated cells. On the procedure: NF-κB Staining and −/+ Stretch pFAK397 Western Blot. GEC's were differentiated under “non-permissive” conditions for ten days, plated onto Bioflex 6-well plates (Flexcell International, Hillsborough, N.C.) coated with Collagen Type 1 (rat tail, BD Biosciences, Bedford, Mass.)/Placental Laminin (Sigma), cultured for two days in 0.5% FCS and exposed to mechanical strain for 4 hours, as previously described (Meehan et al., 2009, Kidney Int; 76: 968-976). For NF-κB Staining, cells were fixed with 2% PFA, 4% Sucrose in PBS for 10 minutes, permeabilized with 0.3% Triton, as previously described (Rao et al., 2006, Am J Pathol; 169: 32-46) incubated with αNF-κB P65 antibody at 1:50 overnight at 4° C., incubated with anti-rabbit secondary antibody at 1:750 for two hours at room temperature, gaskets were cut out, mounted on slides with […]™ (Vector Laboratories, Burlingame, Calif.) and cover slipped. For −/+ Stretch pFAK Western, protein was collected in M-PER (Thermo Scientific) as above and Western Blot run as described below.
NF-κB SN50, Inhibitor Peptide Treatment, GEC's were cultured as described above, 10 μM NF-κB SN50 Inhibitor Peptide (EMD Millipore, Billerica, Mass.) was added (and after one additional hour) exposed to 20 hours of mechanical strain and RNA collected as previously described (Meehan et al., 2009, Kidney Int; 76: 968-976).
Real time qRT-PCR. Total RNA was reverse transcribed using […]® III (Invitrogen, Life Technologies, Grand Island, N.Y.) with Oligo(dT)20 Primer (Invitrogen). The real time PCR was carried out using TAQMAN® Gene Expression Master Mix (Applied Biosystems, Life Technologies, Grand Island, N.Y.), and quantified using STEPONEPLUS™ Real-Time PCR System (Applied Biosystems). Samples were normalized to Mouse GAPDH Endogenous Control VIC® Probe (Applied Biosystems catalogue #4352339E) which was run alongside MMP-9 (Catalog #4331182, ID# Mm00442991_m1), MMP-10 (Catalog #4331182, ID# Mm00444630_m1), MMP-12 (Catalog #4331182, ID# Mm00500554_m1), IL-6 (Catalog #4331182, ID# Mm00446190_m1), NFKbia (Catalog #4331182, ID# Mm00477798_m1), and FAK (Catalog #4331182, ID# Mm00433209_m1) TAQMAN® Gene Expression Assay Probes (Applied Biosystems). Samples were run in triplicate with a final reaction volume of 20 ul with the following cycling parameters: 50° C. for 2 min, 95° C. for 10 min, followed by 40 cycles of a two-step PCR consisting of 95° C. for 15 s and 60° C. for 1 min. Relative changes in gene expression were determined by calculating the fold change using the comparative CT method of 2^−ΔΔCT. Data are expressed as the mean with standard deviation for at least four independent RNA samples per data point.
In general terms: In qPCR the cycle at which signal appears reflects the starting amount.

For test [1], the system named is primary cultured mesangial cells. The test can be described thus: Transwell Migration Assay of primary mesangial cells with TAE226. It counts as cell-based, mouse. The note with it: 0.5 μM TAE226; relative to untreated cells. How it is done:
MES Migration (insert). Transwell cell migration assays were performed as described by Daniel et al. (Daniel et al., 2012, Lab Invest; 92(6): 812-26) with some modifications. 8 micron, 24-well plate control inserts (BD Bioscience, Bedford, Mass.) were coated overnight at 4° C. with 100 μl of 0.1% gelatin/PBS then washed 1× with PBS. MES cultures were incubated in 1% FCS overnight, then 0.05% BSA-containing media for at least 8 hours, washed 1× with PBS and carefully tryspinized to ensure a single cell suspension and limited “clumping” of cells. After serum-neutralization and subsequent centrifugation, ˜100,000 cells were resuspended in 1.5 mls of 0.05% BSA media containing activators/inhibitors. The wells of a 24-well plate were filled with 0.75 mls of 10% FCS-containing media plus activators/inhibitors (excluding 0.05% BSA control well). 0.5 ml of cell-suspension was loaded into the gelatin-coated insert and the insert placed in a well. Wells were visually inspected for bubbles beneath insert and equal distribution of cell-suspension. Cells were allowed to migrate overnight (˜18 hrs). […] Inserts were air dried and counted at 100× magnification. Five fields were counted on each insert including one center and four periphery areas. Data was expressed as relative to 10% FCS control well (set equal to one). […]

Another test relates to glomerular injury. The note with it: lipopolysaccharide or anti-GBM antibody administration; cited from earlier work.

This is an account of results in US9719981B2, “RAC1 inhibitors for the treatment of alport glomerular disease” (Father Flanagan's Boys' Home, priority 2012, dated 2017).

For the compound `CNC(=O)c1ccccc1Nc1nc(Nc2ccc(N3CCOCC3)cc2OC)ncc1Cl` [TAE226], in the test with cultured podocytes (biomechanical stretch), the “MMP-10 message levels in stretched podocytes” value was “reduced” and the “MMP-12 message levels in stretched podocytes” value was “reduced”. For the same compound, in the test on cultured podocytes (static conditions), the “MMP-10 expression in podocytes” value is recorded as “reduced expression” and the “MMP-12 expression in podocytes” value is “reduced expression”. Further, in test [1], the “Cell migratory potential of mesangial cells” value is given as “significantly reduced”. Besides, the “Protection against glomerular injury” value in the test with glomerular injury is reported as “protect against glomerular injury”.
